ChEMBL document CHEMBL4190187, “Discovery of pyrazolopyrimidine derivatives as novel inhibitors of ataxia telangiectasia and rad3 related protein (ATR)” (Bioorg Med Chem Lett, 2017)

Columns and labels:
[1] = system: RAC-gamma serine/threonine-protein kinase (Homo sapiens), Q9Y243 [S472D]; assay: Inhibition of recombinant human PKBgamma S472D mutant (117 to end residues) at 1 uM using GRPRTSSFAEGKK as substrate after 40 mins in presence of [gamma-33P]ATP by scintillation counting method
[2] = molecular target: Activin receptor type-1B (Homo sapiens) (UniProt P36896); assay: Inhibition of recombinant human ALK4 (150 to end residues) at 1 uM using casein as substrate after 40 mins in presence of [gamma-33P]ATP by scintillation counting method
[3] = system: PI3-kinase p110-alpha/p85-alpha (Homo sapiens), P27986+P42336 [E542K]; assay: Inhibition of recombinant full-length human p110a E542K mutant/p85a at 1 uM using phosphatidylinositol 4,5-bisphosphate as substrate after 40 mins in presence of [gamma-33P]ATP by scintillation counting method; type: protein-complex assay
Mus musculus [4] = assay: Oral bioavailability in mouse at 10 mg/kg; type: ADME, organism-based; details: in vivo
[5] = molecular target: Maternal embryonic leucine zipper kinase (Homo sapiens) (UniProt Q14680); assay: Inhibition of recombinant human MELK (1 to 340 residues) at 1 uM using KKLNRTLSFAEPG as substrate after 40 mins in presence of [gamma-33P]ATP by scintillation counting method
Chain of Maternal embryonic leucine zipper kinase (Homo sapiens) (Q14680 whole entry, looked up, the tested form may be a part): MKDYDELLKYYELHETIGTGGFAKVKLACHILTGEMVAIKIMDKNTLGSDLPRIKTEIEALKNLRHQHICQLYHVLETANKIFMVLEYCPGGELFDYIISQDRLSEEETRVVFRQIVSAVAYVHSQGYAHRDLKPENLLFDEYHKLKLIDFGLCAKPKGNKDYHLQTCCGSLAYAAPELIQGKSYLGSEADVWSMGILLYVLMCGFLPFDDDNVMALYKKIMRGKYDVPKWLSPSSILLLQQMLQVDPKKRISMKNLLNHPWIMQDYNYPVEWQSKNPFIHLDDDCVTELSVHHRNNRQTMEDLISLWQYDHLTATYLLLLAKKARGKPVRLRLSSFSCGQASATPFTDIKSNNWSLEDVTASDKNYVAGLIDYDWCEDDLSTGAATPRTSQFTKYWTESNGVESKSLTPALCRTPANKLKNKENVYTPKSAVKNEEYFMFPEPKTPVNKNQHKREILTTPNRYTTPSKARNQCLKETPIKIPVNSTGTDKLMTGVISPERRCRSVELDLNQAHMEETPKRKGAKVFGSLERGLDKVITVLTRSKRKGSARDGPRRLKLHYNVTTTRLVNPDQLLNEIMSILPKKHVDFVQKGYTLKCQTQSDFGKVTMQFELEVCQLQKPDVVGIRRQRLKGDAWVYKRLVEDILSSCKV

[6] = molecular target: Protein kinase C eta type (Homo sapiens) (UniProt P24723); assay: Inhibition of recombinant human PKCeta (2 to end residues) at 1 uM using ERMRPRKRQGSVRRRV as substrate after 40 mins in presence of [gamma-33P]ATP by scintillation counting method
[7] = molecular target: Serine/threonine-protein kinase 24 (Homo sapiens) (UniProt Q9Y6E0); assay: Inhibition of recombinant human MST3 (1 to 304 residues) at 1 uM using ERMRPRKRQGSVRRRV as substrate after 40 mins in presence of [gamma-33P]ATP by scintillation counting method
Chain of Serine/threonine-protein kinase 24 (Homo sapiens) (Q9Y6E0 whole entry, looked up, the tested form may be a part): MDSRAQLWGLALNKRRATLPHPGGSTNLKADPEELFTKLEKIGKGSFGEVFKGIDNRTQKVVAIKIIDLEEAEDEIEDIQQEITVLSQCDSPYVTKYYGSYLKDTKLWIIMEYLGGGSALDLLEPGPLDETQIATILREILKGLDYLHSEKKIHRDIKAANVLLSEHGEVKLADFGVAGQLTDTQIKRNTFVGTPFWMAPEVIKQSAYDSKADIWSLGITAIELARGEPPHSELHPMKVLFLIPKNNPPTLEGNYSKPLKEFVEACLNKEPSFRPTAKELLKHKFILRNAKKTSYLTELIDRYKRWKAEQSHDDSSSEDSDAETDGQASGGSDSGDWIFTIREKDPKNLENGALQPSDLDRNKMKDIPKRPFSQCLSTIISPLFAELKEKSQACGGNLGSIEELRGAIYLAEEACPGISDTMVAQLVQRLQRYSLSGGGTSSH

[8] = molecular target: Death-associated protein kinase 2 (Homo sapiens) (UniProt Q9UIK4); assay: Inhibition of recombinant full-length human DAPK2 at 1 uM using […] after 40 mins in presence of [gamma-33P]ATP by scintillation counting method
[9] = molecular target: Myosin light chain kinase, smooth muscle (Homo sapiens) (UniProt Q15746); assay: Inhibition of recombinant human MLCK (1425 to 1771 residues) at 1 uM using […] after 40 mins in presence of [gamma-33P]ATP by scintillation counting method
[10] = molecular target: Protein kinase C alpha type (Homo sapiens) (UniProt P17252); assay: Inhibition of recombinant full-length human PKCalpha at 1 uM using histone H1 as substrate after 40 mins in presence of [gamma-33P]ATP by scintillation counting method
[11] = molecular target: CDK6/cyclin D3 (Homo sapiens) (UniProt P30281+Q00534); assay: Inhibition of recombinant full-length human CDK6/Cyclin D3 at 1 uM using histone H1 as substrate after 40 mins in presence of [gamma-33P]ATP by scintillation counting method; type: protein-complex assay
[12] = molecular target: Bone morphogenetic protein receptor type-1B (Homo sapiens) (UniProt O00238); assay: Inhibition of recombinant human ALK6 (148 to end residues) at 1 uM using casein as substrate after 40 mins in presence of [gamma-33P]ATP by scintillation counting method
[13] = system: Serine/threonine-protein kinase Chk2 (Homo sapiens), O96017 [I157T]; assay: Inhibition of recombinant human CHK2 I157T mutant (5 to end residues) at 1 uM using KKKVSRSGLYRSPSMPENLNRPR as substrate after 40 mins in presence of [gamma-33P]ATP by scintillation counting method
Chain of Serine/threonine-protein kinase Chk2 (Homo sapiens), O96017 [I157T] (O96017 whole entry I157T): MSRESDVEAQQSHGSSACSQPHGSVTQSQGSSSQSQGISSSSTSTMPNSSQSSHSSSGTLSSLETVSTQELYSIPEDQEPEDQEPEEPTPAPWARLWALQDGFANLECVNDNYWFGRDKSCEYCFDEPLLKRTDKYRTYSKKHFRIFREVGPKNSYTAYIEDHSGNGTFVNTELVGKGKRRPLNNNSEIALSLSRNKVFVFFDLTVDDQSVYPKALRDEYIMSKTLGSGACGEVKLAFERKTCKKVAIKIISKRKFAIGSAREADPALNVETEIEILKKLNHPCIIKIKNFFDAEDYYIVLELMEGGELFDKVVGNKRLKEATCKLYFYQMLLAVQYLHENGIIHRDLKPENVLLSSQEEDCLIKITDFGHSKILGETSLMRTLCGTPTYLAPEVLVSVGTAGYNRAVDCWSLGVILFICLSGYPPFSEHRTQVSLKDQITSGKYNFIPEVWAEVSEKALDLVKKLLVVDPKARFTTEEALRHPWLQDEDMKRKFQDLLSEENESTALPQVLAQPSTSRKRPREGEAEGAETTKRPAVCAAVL

[14] = molecular target: Ephrin type-A receptor 3 (Homo sapiens) (UniProt P29320); assay: Inhibition of recombinant human EPHA3 (578 to end residues) at 1 uM using poly(Glu,Tyr) 4:1 as substrate after 40 mins in presence of [gamma-33P]ATP by scintillation counting method
[15] = molecular target: Serine/threonine-protein kinase 32B (Homo sapiens) (UniProt Q9NY57); assay: Inhibition of recombinant full-length human STK32B at 1 uM using casein as substrate after 120 mins in presence of [gamma-33P]ATP by scintillation counting method
Chain of Serine/threonine-protein kinase 32B (Homo sapiens) (Q9NY57 whole entry): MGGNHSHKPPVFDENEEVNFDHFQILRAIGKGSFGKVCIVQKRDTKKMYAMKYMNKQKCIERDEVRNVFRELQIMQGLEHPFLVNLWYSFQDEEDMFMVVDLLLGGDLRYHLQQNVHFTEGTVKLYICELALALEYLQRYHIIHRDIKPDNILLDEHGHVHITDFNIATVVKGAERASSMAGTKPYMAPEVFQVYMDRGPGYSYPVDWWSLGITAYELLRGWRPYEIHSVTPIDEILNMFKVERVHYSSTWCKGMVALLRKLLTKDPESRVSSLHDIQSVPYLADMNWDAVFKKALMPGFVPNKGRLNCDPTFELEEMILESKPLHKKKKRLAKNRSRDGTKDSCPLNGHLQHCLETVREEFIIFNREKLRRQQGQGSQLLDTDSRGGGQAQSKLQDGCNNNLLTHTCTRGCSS

[16] = molecular target: Ephrin type-B receptor 2 (Homo sapiens) (UniProt P29323); assay: Inhibition of recombinant human EPHB2 (560 to end residues) at 1 uM using poly(Glu,Tyr) 4:1 as substrate after 40 mins in presence of [gamma-33P]ATP by scintillation counting method
Chain of Ephrin type-B receptor 2 (Homo sapiens) (P29323 whole entry): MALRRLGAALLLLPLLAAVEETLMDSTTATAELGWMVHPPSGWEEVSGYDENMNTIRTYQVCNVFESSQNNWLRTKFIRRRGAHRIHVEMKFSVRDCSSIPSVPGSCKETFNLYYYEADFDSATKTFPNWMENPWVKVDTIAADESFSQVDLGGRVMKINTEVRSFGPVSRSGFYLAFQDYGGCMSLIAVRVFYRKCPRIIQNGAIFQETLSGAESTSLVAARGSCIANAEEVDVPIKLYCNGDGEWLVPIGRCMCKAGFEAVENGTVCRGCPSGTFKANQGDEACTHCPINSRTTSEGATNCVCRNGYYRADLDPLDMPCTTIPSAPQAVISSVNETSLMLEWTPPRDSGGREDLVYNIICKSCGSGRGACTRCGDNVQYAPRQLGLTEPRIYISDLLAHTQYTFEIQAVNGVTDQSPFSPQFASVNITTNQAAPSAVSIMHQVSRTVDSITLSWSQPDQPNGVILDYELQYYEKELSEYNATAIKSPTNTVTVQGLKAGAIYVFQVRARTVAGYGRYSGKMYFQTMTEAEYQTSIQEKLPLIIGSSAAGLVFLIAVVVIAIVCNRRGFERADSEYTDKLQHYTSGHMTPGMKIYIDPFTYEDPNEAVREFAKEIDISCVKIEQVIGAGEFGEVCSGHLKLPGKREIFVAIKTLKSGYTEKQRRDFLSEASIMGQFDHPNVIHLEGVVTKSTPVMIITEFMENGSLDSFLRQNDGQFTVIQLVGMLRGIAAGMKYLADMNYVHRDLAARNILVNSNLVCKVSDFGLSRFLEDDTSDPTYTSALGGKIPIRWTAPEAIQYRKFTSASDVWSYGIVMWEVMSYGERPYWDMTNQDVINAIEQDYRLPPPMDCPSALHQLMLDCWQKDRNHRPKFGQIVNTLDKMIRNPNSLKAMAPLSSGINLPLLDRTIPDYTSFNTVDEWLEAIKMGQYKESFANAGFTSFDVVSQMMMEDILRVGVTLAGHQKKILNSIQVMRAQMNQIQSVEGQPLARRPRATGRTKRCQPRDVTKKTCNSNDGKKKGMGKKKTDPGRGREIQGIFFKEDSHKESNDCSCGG

[17] = molecular target: Tyrosine-protein kinase Fgr (Homo sapiens) (UniProt P09769); assay: Inhibition of recombinant human FGR (2 to end residues) at 1 uM using poly(Glu,Tyr) 4:1 as substrate after 40 mins in presence of [gamma-33P]ATP by scintillation counting method
Mus musculus [18] = species: Mus musculus; assay: Inhibition of recombinant full-length mouse p110a/recombinant p65a (1 to 571 residues) at 1 uM using phosphatidylinositol 4,5-bisphosphate as substrate after 40 mins in presence of [gamma-33P]ATP by scintillation counting method
[19] = molecular target: SNF-related serine/threonine-protein kinase (Homo sapiens) (UniProt Q9NRH2); assay: Inhibition of recombinant human SNRK (1 to 505 residues) at 1 uM using KKLRRTLSFAEPG as substrate after 40 mins in presence of [gamma-33P]ATP by scintillation counting method
Chain of SNF-related serine/threonine-protein kinase (Homo sapiens) (Q9NRH2 whole entry, the tested form may be a part): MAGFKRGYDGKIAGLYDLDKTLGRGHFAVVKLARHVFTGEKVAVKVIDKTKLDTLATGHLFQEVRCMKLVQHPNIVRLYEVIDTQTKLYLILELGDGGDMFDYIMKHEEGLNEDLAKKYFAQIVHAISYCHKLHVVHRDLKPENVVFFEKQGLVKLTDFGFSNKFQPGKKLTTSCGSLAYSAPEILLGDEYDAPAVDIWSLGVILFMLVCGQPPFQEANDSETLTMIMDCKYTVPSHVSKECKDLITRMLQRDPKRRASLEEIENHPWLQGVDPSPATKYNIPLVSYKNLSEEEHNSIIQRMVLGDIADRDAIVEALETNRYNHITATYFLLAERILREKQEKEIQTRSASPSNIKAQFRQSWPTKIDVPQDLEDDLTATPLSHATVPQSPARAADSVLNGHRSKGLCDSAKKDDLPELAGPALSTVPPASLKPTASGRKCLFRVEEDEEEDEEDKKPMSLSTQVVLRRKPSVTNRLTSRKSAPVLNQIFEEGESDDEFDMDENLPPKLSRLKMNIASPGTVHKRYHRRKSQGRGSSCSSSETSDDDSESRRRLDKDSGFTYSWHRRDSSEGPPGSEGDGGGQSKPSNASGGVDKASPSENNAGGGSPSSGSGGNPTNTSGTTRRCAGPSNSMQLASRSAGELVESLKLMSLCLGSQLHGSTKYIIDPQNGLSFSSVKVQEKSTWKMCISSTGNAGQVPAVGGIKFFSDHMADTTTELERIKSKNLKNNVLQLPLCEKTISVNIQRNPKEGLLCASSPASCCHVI

[20] = molecular target: RAC-alpha serine/threonine-protein kinase (Homo sapiens) (UniProt P31749); assay: Inhibition of recombinant full-length human PKBalpha at 1 uM using GRPRTSSFAEGKK as substrate after 40 mins in presence of [gamma-33P]ATP by scintillation counting method
Chain of RAC-alpha serine/threonine-protein kinase (Homo sapiens) (P31749 whole entry): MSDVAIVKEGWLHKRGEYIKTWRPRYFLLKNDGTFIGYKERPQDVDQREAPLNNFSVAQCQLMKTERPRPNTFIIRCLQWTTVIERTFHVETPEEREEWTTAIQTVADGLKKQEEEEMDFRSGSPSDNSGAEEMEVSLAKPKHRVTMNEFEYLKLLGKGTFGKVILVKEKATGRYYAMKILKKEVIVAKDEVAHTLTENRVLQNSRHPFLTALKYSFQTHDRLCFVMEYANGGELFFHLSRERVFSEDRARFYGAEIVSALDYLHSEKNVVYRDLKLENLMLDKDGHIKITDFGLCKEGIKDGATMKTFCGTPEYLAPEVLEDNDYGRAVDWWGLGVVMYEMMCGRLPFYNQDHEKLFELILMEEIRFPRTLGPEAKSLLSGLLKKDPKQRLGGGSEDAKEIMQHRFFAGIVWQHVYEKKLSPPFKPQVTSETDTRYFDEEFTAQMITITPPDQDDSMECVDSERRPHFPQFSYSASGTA

[21] = Metabolic stability in rat liver microsomes assessed as compound remaining at 1 uM in presence of NADPH as cofactor measured after 30 mins by LC-MS/MS method; type: ADME, microsome; details: read-out: Stability
[22] = molecular target: Tyrosine-protein kinase ABL1 (Homo sapiens) (UniProt P00519); assay: Inhibition of recombinant full-length human Abl at 1 uM using EAIYAAPFAKKK as substrate after 40 mins in presence of [gamma-33P]ATP by scintillation counting method
[23] = molecular target: Proto-oncogene tyrosine-protein kinase receptor Ret (Homo sapiens) (UniProt P07949); assay: Inhibition of recombinant human RET (658 to end residues) at 1 uM using KKKSPGEYVNIEFG as substrate after 40 mins in presence of [gamma-33P]ATP by scintillation counting method
[24] = molecular target: CDK18/Cyclin Y (Homo sapiens) (UniProt Q07002+Q8ND76); assay: Inhibition of recombinant full-length human CDK18/Cyclin Y at 1 uM using YRRAAVPPSPSLSRHSSPHQS(p)EDEEE as substrate after 40 mins in presence of [gamma-33P]ATP by scintillation counting method; type: protein-complex assay
[25] = system: PI3-kinase p110-alpha/p85-alpha (Homo sapiens), P27986+P42336 [E545K]; assay: Inhibition of recombinant full-length human p110a E545K mutant/p85a at 1 uM using phosphatidylinositol 4,5-bisphosphate as substrate after 40 mins in presence of [gamma-33P]ATP by scintillation counting method; type: protein-complex assay

Chain of RAC-gamma serine/threonine-protein kinase (Homo sapiens), Q9Y243 [S472D] (Q9Y243 whole entry S472D): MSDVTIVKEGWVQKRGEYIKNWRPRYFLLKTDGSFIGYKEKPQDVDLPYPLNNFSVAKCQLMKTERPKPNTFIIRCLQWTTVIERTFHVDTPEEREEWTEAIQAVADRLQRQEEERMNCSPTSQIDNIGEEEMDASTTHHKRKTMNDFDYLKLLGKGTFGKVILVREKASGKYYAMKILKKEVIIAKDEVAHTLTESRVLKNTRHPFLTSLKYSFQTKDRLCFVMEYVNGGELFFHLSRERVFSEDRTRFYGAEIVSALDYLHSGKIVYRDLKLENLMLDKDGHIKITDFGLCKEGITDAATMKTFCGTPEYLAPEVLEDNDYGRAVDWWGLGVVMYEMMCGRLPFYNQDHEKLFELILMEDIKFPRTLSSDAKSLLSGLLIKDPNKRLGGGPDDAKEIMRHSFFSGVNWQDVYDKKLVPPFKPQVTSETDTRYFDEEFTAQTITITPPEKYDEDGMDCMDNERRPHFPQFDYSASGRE

Molecule CS(=O)(=O)c1ccc(-n2nc(-c3cnc4[nH]ccc4c3)c3c(N)ncnc32)cc1 has an inhibition [1] of -7%, an inhibition [2] of 80% and an inhibition [3] of 7%. It also gave an F (Mus musculus [4]) of 2.83%, an inhibition [5] of 28% and an inhibition [6] of 6%. For the same molecule, the inhibition [7] was 13%, the inhibition [8] was 4% and the inhibition [9] was 4%. It also gave an inhibition [10] of -1%, an inhibition [11] of -6% and an inhibition [12] of 18%. It also gave an inhibition [13] of -2%, an inhibition [14] of 7% and an inhibition [15] of 7%. For the same molecule, the inhibition [16] was 2%, the inhibition [17] was 69% and the inhibition (Mus musculus [18]) was 7%. For the same molecule, the inhibition [19] was -6%, the inhibition [20] was -1% and the remaining at 0.5 h, 1 µM [21] was 63%. For the same molecule, the inhibition [22] was 66%, the inhibition [23] was 95% and the inhibition [24] was 0%. For the same molecule, the inhibition [25] was 8%.
